This test concerns IL-12 induced STAT4 phosphorlyation mediated by TYK2/JAK2. Kind of test: IL-12 Induced pSTAT4 in Human PBMC. Format: cell-based. To be noted: 1.7 ng/mL IL-12 for 30 minutes. The gist of the method: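 pSTAT4 and total STAT4 quantified by MSD in lysates of cryopreserved human PBMC after 30-minute stimulation with 1.7 ng/mL IL-12 (final). Compound was added 1 hr beforehand at 37° C, 0.1% DMSO final.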

For `CNc1cc(-c2cn([C@@H]3CCOC[C@H]3F)c3ncccc23)nc2c(C(=O)NC3CC[C@H]3O)cnn12` (stereo partly drawn) [Compound I-592, 5-(1-((3S,4R)-3-Fluorotetrahydro-2H-pyran-4-yl)-1H-pyrrolo[2,3-b]pyridin-3-yl)-N-((cis-1,2)-2-hydroxycyclobutyl)-7-(methylamino)pyrazolo[1,5-a]pyrimidine-3-carboxamide], the IC50 (0.5 h) was less than 0.1 µM.
Consider `CNc1cc(-c2cn([C@H]3C[C@@H](O)C3)c3ncccc23)nc2c(C(=O)N[C@H]3CC[C@@H]3OC)cnn12` [Compound I-606], for which the IC50 is less than 0.1 µM.
As to `CNc1cc(-c2cn([C@@H]3CCOC3)c3ncccc23)nc2c(C(=O)NC3CC[C@@H]3OC)cnn12` (some centres unmarked) [Compound I-609], the IC50 is less than 0.1 µM.
Still for that read-out and setting: under `CNc1cc(-c2cn([C@@H]3CCOC3)c3ncccc23)nc2c(C(=O)N[C@H]3CC[C@@H]3OC)cnn12` [Compound I-610] stands less than 0.1 µM.
For `CNc1cc(-c2cn([C@H]3CCOC3)c3ncccc23)nc2c(C(=O)NC3CC[C@@H]3OC)cnn12` (some centres unmarked) [Compound I-612], the IC50 is less than 0.1 µM.
The compound `CNc1cc(-c2cn([C@H]3CCOC3)c3ncccc23)nc2c(C(=O)N[C@H]3CC[C@@H]3OC)cnn12` [Compound I-613] showed an IC50 of less than 0.1 µM.
In the case of `CNc1cc(-c2cn([C@@H]3CCN(C)C3)c3ncccc23)nc2c(C(=O)NC3CC[C@@H]3OC)cnn12` (some centres unmarked) [Compound I-615], the IC50 is less than 0.1 µM.
As to `CNc1cc(-c2cn([C@@H]3CCN(C)C3)c3ncccc23)nc2c(C(=O)N[C@H]3CC[C@@H]3OC)cnn12` [Compound I-616], the IC50 was less than 0.1 µM.
`CNc1cc(-c2cn([C@H]3CCN(C)C3)c3ncccc23)nc2c(C(=O)NC3CC[C@@H]3OC)cnn12` (some centres unmarked) [Compound I-618]: the IC50 was less than 0.1 µM.
`CNc1cc(-c2cn([C@H]3CCN(C)C3)c3ncccc23)nc2c(C(=O)N[C@H]3CC[C@@H]3OC)cnn12` [Compound I-619] yielded an IC50 of less than 0.1 µM.
Still for that read-out and setting: under `CNc1cc(-c2cn([C@@H]3COC[C@@H]3F)c3ncccc23)nc2c(C(=O)NC3CC[C@@H]3OC)cnn12` (some centres unmarked) [Compound I-621] stands less than 0.1 µM.
Consider `CNc1cc(-c2cn([C@@H]3COC[C@@H]3F)c3ncccc23)nc2c(C(=O)N[C@H]3CC[C@@H]3OC)cnn12` [Compound I-622], for which the IC50 is less than 0.1 µM.
The compound `CNc1cc(-c2cn([C@H]3COC[C@H]3F)c3ncccc23)nc2c(C(=O)NC3CC[C@@H]3OC)cnn12` (stereo partly drawn) [Compound I-624, 5-(1-((3S,4S)-4-Fluorotetrahydrofuran-3-yl)-1H-pyrrolo[2,3-b]pyridin-3-yl)-N-((trans-1,2)-2-methoxycyclobutyl)-7-(methylamino)pyrazolo[1,5-a]pyrimidine-3-carboxamide] gave a concentration for half-maximal inhibition (IC50) (0.5 h) of less than 0.1 µM.
On to `CNc1cc(-c2cn([C@H]3COC[C@H]3F)c3ncccc23)nc2c(C(=O)N[C@H]3CC[C@@H]3OC)cnn12` [Compound I-625], for which the IC50 is less than 0.1 µM.
In turn, `CNc1cc(-c2cn([C@@H]3COC[C@H]3O)c3ncccc23)nc2c(C(=O)N[C@@H]3CC[C@H]3OC)cnn12` [Compound I-629] displayed an IC50 of less than 0.1 µM.
Turning to `CNc1cc(-c2cn([C@H]3COC[C@@H]3O)c3ncccc23)nc2c(C(=O)NC3CC[C@@H]3OC)cnn12` (some centres unmarked) [Compound I-630], the IC50 is 0.1 to 0.5 µM.
With `CNc1cc(-c2cn([C@H]3COC[C@@H]3O)c3ncccc23)nc2c(C(=O)N[C@H]3CC[C@@H]3OC)cnn12` [Compound I-631], the IC50 was less than 0.1 µM.
`CNc1cc(-c2cn([C@H]3COC[C@@H]3OC)c3ncccc23)nc2c(C(=O)NC3CC[C@@H]3OC)cnn12` (some centres unmarked) [Compound I-633] yielded an IC50 of less than 0.1 µM.
`CNc1cc(-c2cn([C@H]3COC[C@@H]3OC)c3ncccc23)nc2c(C(=O)N[C@H]3CC[C@@H]3OC)cnn12` [Compound I-634] yielded an IC50 of less than 0.1 µM.
The compound `CNc1cc(-c2cn([C@@H]3COC[C@H]3OC)c3ncccc23)nc2c(C(=O)NC3CC[C@@H]3OC)cnn12` (some centres unmarked) [Compound I-636] came in with an IC50 of less than 0.1 µM.
In turn, `CNc1cc(-c2cn([C@@H]3COC[C@H]3OC)c3ncccc23)nc2c(C(=O)N[C@H]3CC[C@@H]3OC)cnn12` [Compound I-637] showed an IC50 of less than 0.1 µM.
In turn, `CNc1cc(-c2cn([C@H]3CN(C)C[C@@H]3F)c3ncccc23)nc2c(C(=O)NC3CC[C@@H]3OC)cnn12` (stereo partly drawn) [Compound I-639, 5-(1-((3S,4S)-4-Fluoro-1-methylpyrrolidin-3-yl)-1H-pyrrolo[2,3-b]pyridin-3-yl)-N-((trans-1,2)-2-methoxycyclobutyl)-7-(methylamino)pyrazolo[1,5-a]pyrimidine-3-carboxamide] registered an IC50 (0.5 h) of less than 0.1 µM.
Turning to `CNc1cc(-c2cn([C@H]3CN(C)C[C@@H]3F)c3ncccc23)nc2c(C(=O)N[C@H]3CC[C@@H]3OC)cnn12` [Compound I-640], the IC50 was less than 0.1 µM.
With `CNc1cc(-c2cn([C@@H]3CN(C)C[C@H]3F)c3ncccc23)nc2c(C(=O)NC3CC[C@@H]3OC)cnn12` (some centres unmarked) [Compound I-642], the IC50 was less than 0.1 µM.
`CNc1cc(-c2cn([C@@H]3CN(C)C[C@H]3F)c3ncccc23)nc2c(C(=O)N[C@H]3CC[C@@H]3OC)cnn12` [Compound I-643]: the IC50 is less than 0.1 µM.
With `CNc1cc(-c2cn([C@@H]3CN(C)C[C@H]3OC)c3ncccc23)nc2c(C(=O)NC3CC[C@@H]3OC)cnn12` (some centres unmarked) [Compound I-645], the 50% inhibitory concentration (IC50) is less than 0.1 µM.
With `CNc1cc(-c2cn([C@@H]3CN(C)C[C@H]3OC)c3ncccc23)nc2c(C(=O)N[C@H]3CC[C@@H]3OC)cnn12` [Compound I-646], the IC50 was less than 0.1 µM.
For `CNc1cc(-c2cn([C@H]3CN(C)C[C@@H]3OC)c3ncccc23)nc2c(C(=O)N[C@H]3CC[C@@H]3OC)cnn12` [Compound I-649], the IC50 is less than 0.1 µM.
`CNc1cc(-c2cn([C@H]3CCOC[C@@H]3F)c3ncccc23)nc2c(C(=O)NC3CC[C@@H]3OC)cnn12` (some centres unmarked) [Compound I-651] yielded an IC50 of less than 0.1 µM.
On to `CNc1cc(-c2cn([C@@H]3CCOC[C@H]3F)c3ncccc23)nc2c(C(=O)NC3CC[C@@H]3OC)cnn12` (some centres unmarked) [Compound I-652], for which the IC50 was less than 0.1 µM.
In the case of `CNc1cc(-c2cn([C@H]3CCOC[C@@H]3OC)c3ncccc23)nc2c(C(=O)N[C@H]3CC[C@@H]3OC)cnn12` [Compound I-663], the IC50 is less than 0.1 µM.
Compound `CNc1cc(-c2cn([C@H]3CCOC[C@H]3OC)c3ncccc23)nc2c(C(=O)NC3CC[C@@H]3OC)cnn12` (stereo partly drawn) [Compound I-665, N-((trans-1,2)-2-Methoxycyclobutyl)-5-(1-((3S,4S)-3-methoxytetrahydro-2H-pyran-4-yl)-1H-pyrrolo[2,3-b]pyridin-3-yl)-7-(methylamino)pyrazolo[1,5-a]pyrimidine-3-carboxamide] came in with an IC50 (0.5 h) of less than 0.1 µM.
`CNc1cc(-c2cn([C@H]3CCOC[C@H]3OC)c3ncccc23)nc2c(C(=O)N[C@H]3CC[C@@H]3OC)cnn12` [Compound I-666] had an IC50 of less than 0.1 µM.
`CNc1cc(-c2cn([C@@H]3CCOC[C@@H]3OC)c3ncccc23)nc2c(C(=O)NC3CC[C@@H]3OC)cnn12` (some centres unmarked) [Compound I-668] yielded an IC50 of less than 0.1 µM.
Consider `CNc1cc(-c2cn([C@@H]3CCOC[C@@H]3OC)c3ncccc23)nc2c(C(=O)N[C@H]3CC[C@@H]3OC)cnn12` [Compound I-669], for which the IC50 is less than 0.1 µM.
In turn, `CNc1cc(-c2cn([C@H]3CCC4(C3)OCCO4)c3ncccc23)nc2c(C(=O)NC3CC[C@@H]3OC)cnn12` (some centres unmarked) [Compound I-671] had an IC50 of less than 0.1 µM.
With `CNc1cc(-c2cn([C@@H]3CCC4(C3)OCCO4)c3ncccc23)nc2c(C(=O)NC3CC[C@@H]3OC)cnn12` (some centres unmarked) [Compound I-672], the IC50 is less than 0.1 µM.
Compound `CNc1cc(-c2cn(C3COC3)c3ncccc23)nc2c(C(=O)NC3CCC3(F)F)cnn12` (centres unmarked) [Compound I-673] had an IC50 of less than 0.1 µM.
`CNc1cc(-c2cn(C3COC3)c3ncccc23)nc2c(C(=O)N[C@@H]3CCC3(F)F)cnn12` [Compound I-675]: the IC50 was less than 0.1 µM.
`CNc1cc(-c2cn(C3CN(C)C3)c3ncccc23)nc2c(C(=O)NC3CCC3(F)F)cnn12` (centres unmarked) [Compound I-676]: the IC50 was less than 0.1 µM.
Still for that read-out and setting: under `CNc1cc(-c2cn([C@H]3C[C@@H](O)C3)c3ncccc23)nc2c(C(=O)NC3CCC3(F)F)cnn12` (some centres unmarked) [Compound I-677] stands less than 0.1 µM; under `CNc1cc(-c2cn(C3CCCC3)c3ncccc23)nc2c(C(=O)NC3CCC3(F)F)cnn12` (centres unmarked) [Compound I-680], less than 0.1 µM.
The compound `CNc1cc(-c2cn(C3CCCC3)c3ncccc23)nc2c(C(=O)N[C@@H]3CCC3(F)F)cnn12` [Compound I-681] gave an IC50 of less than 0.1 µM.
The compound `CNc1cc(-c2cn(C3CCCC3)c3ncccc23)nc2c(C(=O)NC3CCC3(F)F)cnn12` (centres unmarked) [Compound I-683] registered an IC50 of less than 0.1 µM.
In turn, `CNc1cc(-c2cn(C3CCCC3)c3ncccc23)nc2c(C(=O)N[C@H]3CCC3(F)F)cnn12` [Compound I-685] came in with an IC50 of less than 0.1 µM.
On to `CNc1cc(-c2cn([C@@H]3CCN(C)C3)c3ncccc23)nc2c(C(=O)NC3CCC3(F)F)cnn12` (some centres unmarked) [Compound I-686], for which the IC50 was less than 0.1 µM.
Compound `CNc1cc(-c2cn([C@@H]3COC[C@H]3O)c3ncccc23)nc2c(C(=O)NC3CCC3(F)F)cnn12` (some centres unmarked) [Compound I-692] gave an IC50 of less than 0.1 µM.
`CNc1cc(-c2cn([C@@H]3COC[C@H]3O)c3ncccc23)nc2c(C(=O)N[C@H]3CCC3(F)F)cnn12` [Compound I-693]: the IC50 is less than 0.1 µM.
For the compound `CNc1cc(-c2cn([C@H]3COC[C@@H]3O)c3ncccc23)nc2c(C(=O)NC3CCC3(F)F)cnn12` (some centres unmarked) [Compound I-695], the IC50 was less than 0.1 µM.
`CNc1cc(-c2cn(C3CCOCC3)c3ncccc23)nc2c(C(=O)N[C@H]3CCC3(F)F)cnn12` [Compound I-699]: the IC50 is less than 0.1 µM.
The compound `CNc1cc(-c2cn([C@@H]3CCOC[C@@H]3OC)c3ncccc23)nc2c(C(=O)NC3CCC3(F)F)cnn12` (some centres unmarked) [Compound I-702] registered an IC50 of less than 0.1 µM.
Turning to `CNc1cc(-c2cn([C@@H]3CCOC[C@@H]3OC)c3ncccc23)nc2c(C(=O)N[C@H]3CCC3(F)F)cnn12` [Compound I-703], the IC50 was less than 0.1 µM.
Take `CNc1cc(-c2cn([C@H]3CC3(F)F)c3ncccc23)nc2c(C(=O)NC3COC[C@H]3O)cnn12` (some centres unmarked) [Compound I-709]: the IC50 was 0.1 to 0.5 µM.

By IC50 is commonly meant the concentration needed to halve the response being measured. A lower IC50 goes with greater potency in that assay.

For the origin of these results see patent US11414431B2, “Substituted pyrazolo[1,5-a]pyrimidines as TYK2 inhibitors” (Nimbus Lakshmi, Inc., priority 2018, dated 2022).
